ChEMBL document CHEMBL1201862, “PubChem BioAssay data set” (2004)
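Tested at 5 concentrations; 48 h exposure; 96-well plates; endpoints linearly interpolated, else capped at highest concentration. GI50 marks 50% less growth.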 Active and inactive are the calls of the source. Rule as the data show it: active = GI50 up to about 1.1 µM and inactive = higher.

What was measured:
Test in all cases: inhibition of tumour cell growth, NCI panel, 48 h
IGROV-1 = test system: IGROV-1
HCT-116 = test system: HCT-116
SF-539 = test system: SF-539
SF-268 = test system: SF-268
SNB-75 = test system: SNB-75
SF-295 = test system: SF-295
RXF 393 = test system: RXF 393
A549 = test system: A549
A498 = test system: A498
HOP-62 = test system: HOP-62
SK-MEL-5 = test system: SK-MEL-5
OVCAR-8 = test system: OVCAR-8
KM12 = test system: KM12
UO-31 = test system: UO-31
UACC-62 = test system: UACC-62

Compound	GI50 (IGROV-1)	GI50 (HCT-116)	GI50 (SF-539)	GI50 (SF-268)	GI50 (SNB-75)	GI50 (SF-295)	GI50 (RXF 393)	GI50 (A549)	GI50 (A498)	GI50 (HOP-62)	GI50 (SK-MEL-5)	GI50 (OVCAR-8)	GI50 (KM12)	GI50 (UO-31)	GI50 (UACC-62)
O=NN(CCCl)C(=O)NC1CCC(CC2CCC(NC(=O)N(CCCl)N=O)CC2)CC1 (centres undefined)	29.9 µM (inactive)	30.1 µM (inactive)	0.817 µM (active)	0.836 µM (active)	16.6 µM (inactive)	0.986 µM (active)	1.66 µM (inactive)	33 µM (inactive)	31.4 µM (inactive)	1.97 µM (inactive)	32 µM (inactive)	19.9 µM (inactive)	> 73.3 µM (inactive)	46.1 µM (inactive)	
Cc1cc(O)nc(NN2C(Cl)C(=O)C2c2cccc(O)c2)n1 (centres undefined)	4.8 µM (inactive)	2.87 µM (inactive)	2.74 µM (inactive)	5.62 µM (inactive)	1.64 µM (inactive)		3.48 µM (inactive)	4.44 µM (inactive)		4.49 µM (inactive)	12.2 µM (inactive)	7.21 µM (inactive)	7.1 µM (inactive)	3.83 µM (inactive)	3.37 µM (inactive)
Cc1cccc2c1C(=O)OC2(c1cccc2ccccc12)c1cccc2ccccc12	> 100 µM (inactive)	> 100 µM (inactive)		56 µM (inactive)	21.3 µM (inactive)	33.6 µM (inactive)	27.2 µM (inactive)	> 100 µM (inactive)	> 100 µM (inactive)	27.4 µM (inactive)	> 100 µM (inactive)	40.2 µM (inactive)	> 100 µM (inactive)	79.3 µM (inactive)	> 100 µM (inactive)
O=[N+]([O-])c1cccc(C2=NOC3CCCC23)c1 (centres undefined)	> 100 µM (inactive)	> 100 µM (inactive)	> 100 µM (inactive)	> 100 µM (inactive)	> 100 µM (inactive)	> 100 µM (inactive)		> 100 µM (inactive)	> 100 µM (inactive)	> 100 µM (inactive)	> 100 µM (inactive)	> 100 µM (inactive)	> 100 µM (inactive)	> 100 µM (inactive)	> 100 µM (inactive)
CCN(CC)C(=S)SS(C)(=O)=O	> 100 µM (inactive)	26.4 µM (inactive)	22 µM (inactive)		29.6 µM (inactive)	18.9 µM (inactive)	11 µM (inactive)			18.7 µM (inactive)	25.5 µM (inactive)	19.8 µM (inactive)	17.1 µM (inactive)	19 µM (inactive)	15.1 µM (inactive)
CCOC(=O)C12CC1(C(=O)OCC)C1CCC2C1 (centres undefined)	> 100 µM (inactive)	> 100 µM (inactive)		> 100 µM (inactive)		> 100 µM (inactive)		> 100 µM (inactive)	> 100 µM (inactive)	> 100 µM (inactive)	54.1 µM (inactive)	> 100 µM (inactive)		> 100 µM (inactive)	> 100 µM (inactive)
Cc1cccc(/N=C2\NC(=O)C(CC(=O)Nc3ccc(C)cc3C)S2)c1 (centres undefined)	> 100 µM (inactive)	> 100 µM (inactive)	> 100 µM (inactive)	> 100 µM (inactive)	> 100 µM (inactive)	61.9 µM (inactive)	> 100 µM (inactive)	> 100 µM (inactive)	> 100 µM (inactive)		94 µM (inactive)	70.6 µM (inactive)		66.7 µM (inactive)	68.2 µM (inactive)
C/C=C/CP(=O)(c1ccccc1)c1ccccc1	> 100 µM (inactive)	> 100 µM (inactive)	> 100 µM (inactive)		> 100 µM (inactive)	> 100 µM (inactive)	> 100 µM (inactive)	> 100 µM (inactive)	> 100 µM (inactive)	> 100 µM (inactive)	> 100 µM (inactive)	> 100 µM (inactive)	> 100 µM (inactive)	> 100 µM (inactive)	> 100 µM (inactive)
COC(=O)C1=C(C)N(NC(=O)c2ccccc2)C2(O)CCCC(=O)C12C (centres undefined)	> 100 µM (inactive)	> 100 µM (inactive)	> 100 µM (inactive)		63.5 µM (inactive)	> 100 µM (inactive)	> 100 µM (inactive)	> 100 µM (inactive)	> 100 µM (inactive)		> 100 µM (inactive)	> 100 µM (inactive)	> 100 µM (inactive)	> 100 µM (inactive)	> 100 µM (inactive)
O=c1c2ccccc2sc2nc(O)nn12	> 100 µM (inactive)	> 100 µM (inactive)	> 100 µM (inactive)	> 100 µM (inactive)	> 100 µM (inactive)	> 100 µM (inactive)	> 100 µM (inactive)	> 100 µM (inactive)		> 100 µM (inactive)	> 100 µM (inactive)	> 100 µM (inactive)	> 100 µM (inactive)	> 100 µM (inactive)	> 100 µM (inactive)
C/C(=C1/N=C(c2cc([N+](=O)[O-])ccc2Cl)N(C2=CC=C(Cl)CC2)C1=O)c1cc2ccccc2oc1=O	27.6 µM (inactive)	37.4 µM (inactive)	10.7 µM (inactive)	36.9 µM (inactive)	32.4 µM (inactive)	41.7 µM (inactive)		27.9 µM (inactive)	23.4 µM (inactive)	31.5 µM (inactive)	24.3 µM (inactive)	51.5 µM (inactive)	19.9 µM (inactive)	21.8 µM (inactive)	29.2 µM (inactive)
COc1nc2[nH]ccc2c(=O)n1C	> 100 µM (inactive)	> 100 µM (inactive)	> 100 µM (inactive)	> 100 µM (inactive)	> 100 µM (inactive)	> 100 µM (inactive)	> 100 µM (inactive)	> 100 µM (inactive)	> 100 µM (inactive)		> 100 µM (inactive)	> 100 µM (inactive)	> 100 µM (inactive)		
COc1cccc2c1C(=O)c1c(O)c3c(c(O)c1C2=O)C[C@@](O)(C(=O)CO)CC3OC1CC(NCCCCC(OC(C)=O)OC(C)=O)C(O)C(C)O1 (some centres undefined)	0.0046 µM (active)		0.00212 µM (active)	0.00313 µM (active)	0.00137 µM (active)	0.0034 µM (active)	0.00193 µM (active)	0.00243 µM (active)	0.00365 µM (active)	0.0021 µM (active)		0.00305 µM (active)	0.0024 µM (active)	0.00192 µM (active)	0.00182 µM (active)
NC(CO)c1ccccc1 (centres undefined)	> 100 µM (inactive)	> 100 µM (inactive)	> 100 µM (inactive)	> 100 µM (inactive)	> 100 µM (inactive)	> 100 µM (inactive)	> 100 µM (inactive)	> 100 µM (inactive)		> 100 µM (inactive)	> 100 µM (inactive)	> 100 µM (inactive)	> 100 µM (inactive)	> 100 µM (inactive)	> 100 µM (inactive)
Cn1cnc([N+](=O)[O-])c1Sc1nccc(O)n1	> 100 µM (inactive)	> 100 µM (inactive)	> 100 µM (inactive)	> 100 µM (inactive)	> 100 µM (inactive)	> 100 µM (inactive)		> 100 µM (inactive)	> 100 µM (inactive)	> 100 µM (inactive)	> 100 µM (inactive)	> 100 µM (inactive)	> 100 µM (inactive)	> 100 µM (inactive)	> 100 µM (inactive)
